The text below walks through data of patent EP1175907A1, “REMEDIES” (Takara Shuzo Co, Ltd., priority 1999, dated 2000).

The subject of assay [1] is MRC-5 cells. As to the kind of experiment: synergistic effect on HGF production with PGE1 or IL-1α in MRC-5 cells. The format is cell-based, Human. The conditions noted are these: control = 100%. An excerpt: (1) Synergistic effect for the induction action for HGF production of the fucoidan derived from Kjellmaniella crassifolia described in item (1) of Reference Example 1 with prostaglandin or IL-1 was studied in the same manner as that in item (1) of Example 1.
Specifically, the synergistic effect for the induction activity for HGF production was studied by simultaneously adding the fucoidan and PGE1 (manufactured by Wako Pure Chemicals Industries, Ltd.) or IL-1α (manufactured by Genzyme).
The fucoidan sample was added so as to have a final concentration of 1, 10 or 100 µg/ml. PGE1 was added so as to have a concentration of 0.1 or 1 µM, the IL-1α was added so as to have a concentration of 1 ng/ml. As a control, distilled water was added in same volume as that of the sample.
The synergistic effect was studied in comparison to the amount produced of a case where the fucoidan sample or PGE1 or IL-1α was added alone.
In Tables 35 and 36, the amount of HGF produced of the control was regarded as 100%. Each experiment was carried out twice, and an average value was taken. […]
(2) Synergistic effect for the induction action for HGF production of 7-12SFd-F of Reference Example 2 with prostaglandin or IL-1 was studied in the same manner as that in item (1) of Example 2. […]

The test system of assay [2] is MRC-5 cells. The assay can be described thus: mRNA of HGF in MRC-5 cells (RT-PCR). The format is cell-based. Conditions: 7-12SFd-F 100 µg/ml, LM Heparin 1 µg/ml or PGE1 1 µM; Hours 0 to 24, compared to control. How it is done:
MRC-5 cells (CCL 171: manufactured by DAINIPPON PHARMACEUTICAL CO., LTD., code. 02-021) cultured in a DMEM medium containing 10% fetal bovine serum were suspended in the DMEM medium containing 10% fetal bovine serum so as to have a concentration of 2.5 × 10^5 cells/ml, and added into each well of a 6-well cell culture plate. The cells were cultured at 37°C for 24 hours in the presence of 5% CO2. Thereafter, the medium was exchanged for a DMEM medium containing 1% fetal bovine serum, and the cells were further cultured for 22 hours. Thereafter, the medium was exchanged for each medium added with 7-12SFd-F prepared in item (3) of Reference Example 2 so as to have a final concentration of 100 µg/ml, LM Heparin (manufactured by Celsus Laboratories) so as to have a final concentration of 1 µg/ml, or prostaglandin E1 (PGE1) (manufactured by Wako Pure Chemicals Industries, Ltd.) dissolved in dimethyl sulfoxide (DMSO) so as to have a final concentration of 1 µM. As a medium for control group, the medium added with DMSO was used. Here, the solvent of each additive mentioned above was added so as to have a concentration of 1% in all cases. […] In addition, in order to carry out a semi-quantitative experiment, â-actin, a housekeeping gene, was also detected. […] In all of the samples, mRNA of HGF was detected. […]

Assay [3] concerns HL60 cells. The assay can be described thus: HGF in medium and cells of HL60 cells with or without TPA. The class given is cell-based, human. The conditions noted are these: 10 nM TPA alone, 24 h. How it is done:
HL60 cells (human promyelocytic leukemia cell line) cultured in an RPMI 1640 medium containing 10% fetal bovine serum were suspended in an RPMI 1640 medium containing 1% fetal bovine serum so as to have a concentration of 5 × 10^5 cells/ml, and added into each well of a 48-well cell culture plate in a volume of 500 µl each. There after, 10 nM TPA was added thereto, and each sample was further added, and the cells were then cultured for 24 hours. Also, the same steps were carried out for the group added with only the sample without adding TPA. The medium was collected, and the amount of HGF in the medium was determined by using the Quantikine Human Hepatocyte Growth Factor (HGF) ELISA Kit. Further, the cells were washed with PBS, and thereafter dissolved in 500 µl of a cytolytic buffer (50 mM HEPES, pH 7.4; 10 mM EDTA; 0.1% Triton X100; 1 mM PMSF; 1 µg/ml pepstatin A and 1 µg/ml leupeptin). Further, in order to completely dissolve the cells, the mixture was subjected to sonication treatment, and then centrifuged, to give a supernatant (cell extract). The amount of HGF in the cells was determined in the same manner as that of the concentration of HGF in the medium. 7-12SFd-F prepared in item (3) of Reference Example 2 was added so as to have a final concentration of 1, 10 or 100 µg/ml. As a negative control, distilled water was added in the same volume as that of the sample. Each experiment was carried out three times, and an average value was taken.

For assay [4], the system named is HL60 cells. As to the kind of experiment: HGF mRNA in HL60 cells (RT-PCR). The format is cell-based, human. The conditions noted are these: 10 nM TPA, at any time periods (4 to 10 hours). Here is the method:
HL60 cells (human promyelocytic leukemia cell line) cultured in an RPMI 1640 medium containing 10% fetal bovine serum were suspended in an RPMI 1640 medium containing 1% fetal bovine serum so as to have a concentration of 5 × 10^5 cells/ml, and added into each well of a 6-well cell culture plate in a volume of 2 ml each. Thereafter, 10 nM TPA and 7-12SFd-F prepared in item (3) of Reference Example 2 were added each so as to have a final concentration of 100 µg/ml. Also, the same steps were carried out for the group added with only 7-12SFd-F without adding TPA. The cells were further cultured, and a whole RNA was extracted on Hours 4, 6, 8, and 10. In the extraction of the whole RNA, RNeasy Mini Kit (manufactured by QIAGEN) was used. RT-PCR was carried out entirely in the same manner as that in Example 14, except for changing the cycles for PCR to 32 cycles. After the reaction, the reaction mixture was subjected to electrophoresis on a 2% agarose gel and ethidium bromide staining, and the gel was observed under UV irradiation.

In assay [5] the test system is NHDF cells. The assay can be described thus: HGF mRNA in NHDF cells (RT-PCR). The format is cell-based, human. The conditions noted are these: 10 nM TPA, at any time periods (4 to 10 hours). How it is done: NHDF cells (normal human dermal fibroblasts) cultured in a DMEM medium containing 10% fetal bovine serum were suspended in the DMEM medium containing 10% fetal bovine serum so as to have a concentration of 2.5 × 10^5 cells/ml, and added into each well of a 6-well cell culture plate in a volume of 2 ml each. The cells were cultured at 37°C for 24 hours in the presence of 5% CO2. Thereafter, the medium was exchanged for a DMEM medium containing 1% fetal bovine serum, and thereto were added 10 nM tetradecanoylphorbol 13-acetate (TPA: manufactured by Gibco BRL) and 7-12SFd-F prepared in item (3) of Reference Example 2 each so as to have a final concentration of 100 µg/ml. Also, the same steps were carried out for the group added with only 7-12SFd-F without adding TPA. The cells were further cultured, and a whole RNA was extracted on Hours 4, 6, 8 and 10. In the extraction of the whole RNA, RNeasy Mini Kit (QIAGEN) was used. RT-PCR was carried out entirely in the same manner as that in Example 14, except for changing the cycles for PCR to 28 cycles. After the reaction, the reaction mixture was subjected to electrophoresis on a 2% agarose gel and ethidium bromide staining, and the gel was observed under UV irradiation.

Assay [6] concerns NHDF cells. The assay can be described thus: HGF in medium and cells of NHDF cells with or without TPA. The class given is cell-based, human. Conditions: 10 nM TPA alone.
The test system of another assay is Hs68 cells. As to the kind of experiment: HGF in medium and cells of Hs68 cells with or without TPA. The class given is cell-based, human. Conditions: 10 nM TPA alone. How it is done: Hs68 cells (human newborn foreskin fibroblasts: manufactured by DAINIPPON PHARMACEUTICAL CO., LTD., ATCC CRL-1635) cultured in a DMEM medium containing 10% fetal bovine serum were suspended in the DMEM medium containing 10% fetal bovine serum so as to have a concentration of 1 × 10^5 cells/ml, and added into each well of a 48-well cell culture plate in a volume of 500 µl each. The cells were cultured for 24 hours. Thereafter, the medium was exchanged for a DMEM medium containing 1% fetal bovine serum, and thereto were added 10 nM TPA and each sample. Also, the same steps were carried out for the group added with only the sample without adding TPA. The medium was collected, and the amount of HGF in the medium was determined by using Quantikine Human Hepatocyte Growth Factor (HGF) ELISA Kit. Further, the cells were washed with PBS, and thereafter dissolved in 500 µl of a cytolytic buffer (50 mM HEPES, pH 7.4; 10 mM EDTA; 0.1% Triton X100; 1 mM PMSF; 1 µg/ml pepstatin A and 1 µg/ml leupeptin). Further, in order to completely dissolve the cells, the mixture was subjected to sonication treatment, and then centrifuged, to give a supernatant (cell extract). The amount of HGF in the cell was determined in the same manner as that of the concentration of HGF in the medium. 7-12SFd-F prepared in item (3) of Reference Example 2 was added so as to have a final concentration of 0.1, 1, 10 or 100 µg/ml. As a negative control, distilled water was added in the same volume as that of the sample. Each experiment was carried out three times, and an average value was taken. In the TPA non-added group, a remarkable production of HGF could not be found. […] In addition, the increase in the amount of HGF when mRNA is increased as described above was very remarkable, as compared to the case where the amount of mRNA is small with no TPA treatment. It was clarified from the above that 7-12SFd-F remarkably promotes the freeing and production of HGF in a case where transcription of mRNA is promoted, so that a large amount of HGF is required.

Several values for one entry are separate records, joined by “and”; a condition that tells them apart may be missing. Identical values can stand only once.

`CCCCC[C@H](O)/C=C/[C@H]1[C@H](O)CC(=O)[C@@H]1CCCCCCC(=O)O` [PGE1, prostaglandin E1]: the “Amount of HGF Produced” value in the assay with MRC-5 cells [1] (PGE1 0.1 µM alone) was 119% and 123%; in the assay on MRC-5 cells [1] (PGE1 1 µM alone), 157% and 170%. In the assay on MRC-5 cells [2], the “induction of mRNA of HGF” value is “found”.

For the molecule `CCCCCCCCCCCCCC(=O)O[C@@H]1[C@@H](C)[C@@]2(O)[C@@H](C=C(CO)C[C@]3(O)C(=O)C(C)=C[C@@H]23)[C@@H]2C(C)(C)[C@]12OC(C)=O` [TPA, 12-O-tetradecanoylphorbol 13-acetate], the “Amount of HGF in Cells” value worked out at 83.37 pg/Well in the assay with HL60 cells [3], 0.24 ng/Well in the assay with NHDF cells [6] and 155.65 pg/Well in the assay with Hs68 cells. The results for the “Amount of HGF in Medium” value with HL60 cells [3], in the assay on NHDF cells [6] and in the assay with Hs68 cells were 261.60 pg/Well, 0.39 ng/Well and 65.54 pg/Well, respectively. For the same molecule, the “Total Amount of HGF” value in the assay with HL60 cells [3] was determined as 344.97 pg/Well; with NHDF cells [6] it was 0.63 ng/Well; in the assay on Hs68 cells it was 221.19 pg/Well. Also, the “amount of HGF mRNA” value in the assay on HL60 cells [4] and in the assay on NHDF cells [5] was “remarkably increased” in each case.
